Results taken from ChEMBL document CHEMBL5303573, “Mapping human microbiome drug metabolism by gut bacteria and their genes” (Nature, 2019).

Columns and labels:
[1] = The drug is tested on Bacteroides finegoldii strain: DSM17565 for biotransformation. The drug concentrations were measured before and after a 12-h incubation by liquid-chromatography-coupled mass spectrometry (LC–MS); details: 2 µM
[2] = The drug is tested on Bacteroides ovatus strain: ATCC8483 for biotransformation. The drug concentrations were measured before and after a 12-h incubation by liquid-chromatography-coupled mass spectrometry (LC–MS); details: 2 µM
[3] = The drug is tested on Bacteroides pectinophilus strain: ATCC43243 for biotransformation. The drug concentrations were measured before and after a 12-h incubation by liquid-chromatography-coupled mass spectrometry (LC–MS); details: 2 µM
[4] = The drug is tested on Bacteroides sp. WH2 strain: WH2 for biotransformation. The drug concentrations were measured before and after a 12-h incubation by liquid-chromatography-coupled mass spectrometry (LC–MS); details: bacteroides sp. wh2, 12 h, 2 µM
[5] = The drug is tested on Odoribacter splanchnicus strain: fecal isolate for biotransformation. The drug concentrations were measured before and after a 12-h incubation by liquid-chromatography-coupled mass spectrometry (LC–MS); details: 2 µM
[6] = The drug is tested on Blautia luti strain: DSM14534 for biotransformation. The drug concentrations were measured before and after a 12-h incubation by liquid-chromatography-coupled mass spectrometry (LC–MS); type: ADME; set-up: dose 2 uM, timepoint 0 vs 12 hours; details: 2 µM
[7] = The drug is tested on Clostridium asparagiforme strain: DSM15981 for biotransformation. The drug concentrations were measured before and after a 12-h incubation by liquid-chromatography-coupled mass spectrometry (LC–MS); type: ADME; set-up: dose 2 uM, timepoint 0 vs 12 hours; details: enterocloster asparagiformis, 2 µM
[8] = The drug is tested on Eubacterium hallii strain: DSM3353 for biotransformation. The drug concentrations were measured before and after a 12-h incubation by liquid-chromatography-coupled mass spectrometry (LC–MS); details: anaerobutyricum hallii, 2 µM
[9] = The drug is tested on Eubacterium rectale strain: ATCC33656 for biotransformation. The drug concentrations were measured before and after a 12-h incubation by liquid-chromatography-coupled mass spectrometry (LC–MS); details: agathobacter rectalis, 2 µM
[10] = The drug is tested on Ruminococcus torques strain: ATCC27756 for biotransformation. The drug concentrations were measured before and after a 12-h incubation by liquid-chromatography-coupled mass spectrometry (LC–MS); type: ADME; set-up: dose 2 uM, timepoint 0 vs 12 hours; details: 2 µM
[11] = The drug is tested on Enterobacter cancerogenus strain: ATCC35316 for biotransformation. The drug concentrations were measured before and after a 12-h incubation by liquid-chromatography-coupled mass spectrometry (LC–MS); details: 2 µM
[12] = The drug is tested on Providencia stuartii strain: ATCC25827 for biotransformation. The drug concentrations were measured before and after a 12-h incubation by liquid-chromatography-coupled mass spectrometry (LC–MS); details: 2 µM
[13] = bacteroides eggerthii, 12 h, 2 µM
Description: The drug is tested on Bacteroides eggerthii strain: DSM20697 for biotransformation. The drug concentrations were measured before and after a 12-h incubation by liquid-chromatography-coupled mass spectrometry (LC–MS)

[14] = bacteroides stercoris, 12 h, 2 µM
Description: The drug is tested on Bacteroides stercoris strain: ATCC43183 for biotransformation. The drug concentrations were measured before and after a 12-h incubation by liquid-chromatography-coupled mass spectrometry (LC–MS)

[15] = bacteroides thetaiotaomicron, 12 h, 2 µM
Description: The drug is tested on Bacteroides thetaiotaomicron strain: VPI-5482 for biotransformation. The drug concentrations were measured before and after a 12-h incubation by liquid-chromatography-coupled mass spectrometry (LC–MS)

[16] = segatella copri, 12 h, 2 µM
Description: The drug is tested on Prevotella copri strain: DSM18205 for biotransformation. The drug concentrations were measured before and after a 12-h incubation by liquid-chromatography-coupled mass spectrometry (LC–MS)

[17] = enterocloster bolteae, 12 h, 2 µM
Description: The drug is tested on Clostridium bolteae strain: ATCCBAA-613 for biotransformation. The drug concentrations were measured before and after a 12-h incubation by liquid-chromatography-coupled mass spectrometry (LC–MS)

[18] = The drug is tested on Bifidobacterium ruminantium strain: fecal isolate for biotransformation. The drug concentrations were measured before and after a 12-h incubation by liquid-chromatography-coupled mass spectrometry (LC–MS); details: 2 µM
[19] = The drug is tested on Bacteroides dorei strain: DSM17855 for biotransformation. The drug concentrations were measured before and after a 12-h incubation by liquid-chromatography-coupled mass spectrometry (LC–MS); details: phocaeicola dorei, 2 µM
[20] = The drug is tested on Bacteroides vulgatus strain: ATCC8482 for biotransformation. The drug concentrations were measured before and after a 12-h incubation by liquid-chromatography-coupled mass spectrometry (LC–MS); details: phocaeicola vulgatus, 2 µM

CC(O)(CS(=O)(=O)c1ccc(F)cc1)C(=O)Nc1ccc(C#N)c(C(F)(F)F)c1 (configuration not stated) [BICALUTAMIDE]
Bacterial Biotransformation [1]: Compound NOT metabolized | Bacterial Biotransformation [2]: Compound NOT metabolized | Bacterial Biotransformation [3]: Compound NOT metabolized | Bacterial Biotransformation [4]: Compound NOT metabolized | Bacterial Biotransformation [5]: Compound metabolized | Bacterial Biotransformation [6]: Compound NOT metabolized | Bacterial Biotransformation [7]: Compound NOT metabolized | Bacterial Biotransformation [8]: Compound NOT metabolized | Bacterial Biotransformation [9]: Compound NOT metabolized | Bacterial Biotransformation [10]: Compound NOT metabolized | Bacterial Biotransformation [11]: Compound metabolized | Bacterial Biotransformation [12]: Compound NOT metabolized | Bacterial Biotransformation [13]: Compound NOT metabolized | Bacterial Biotransformation [14]: Compound NOT metabolized | Bacterial Biotransformation [15]: Compound NOT metabolized | Bacterial Biotransformation [16]: Compound NOT metabolized | Bacterial Biotransformation [17]: Compound NOT metabolized

CS(=O)(=O)O.OC(CCN1CCCCC1)(c1ccccc1)c1ccccc1 [PRIDINOL METHANESULFONATE]
Bacterial Biotransformation [18]: Compound NOT metabolized | Bacterial Biotransformation [19]: Compound NOT metabolized | Bacterial Biotransformation [1]: Compound NOT metabolized | Bacterial Biotransformation [2]: Compound NOT metabolized | Bacterial Biotransformation [3]: Compound NOT metabolized | Bacterial Biotransformation [20]: Compound NOT metabolized | Bacterial Biotransformation [4]: Compound NOT metabolized | Bacterial Biotransformation [5]: Compound NOT metabolized | Bacterial Biotransformation [6]: Compound NOT metabolized | Bacterial Biotransformation [7]: Compound NOT metabolized | Bacterial Biotransformation [8]: Compound NOT metabolized | Bacterial Biotransformation [9]: Compound NOT metabolized | Bacterial Biotransformation [10]: Compound NOT metabolized | Bacterial Biotransformation [12]: Compound NOT metabolized | Bacterial Biotransformation [13]: Compound NOT metabolized | Bacterial Biotransformation [14]: Compound NOT metabolized | Bacterial Biotransformation [15]: Compound NOT metabolized | Bacterial Biotransformation [16]: Compound NOT metabolized | Bacterial Biotransformation [17]: Compound NOT metabolized

CN1C(C(=O)Nc2ccccn2)=C(O)c2sccc2S1(=O)=O [TENOXICAM]
Bacterial Biotransformation [18]: Compound NOT metabolized | Bacterial Biotransformation [19]: Compound NOT metabolized | Bacterial Biotransformation [2]: Compound NOT metabolized | Bacterial Biotransformation [3]: Compound NOT metabolized | Bacterial Biotransformation [20]: Compound NOT metabolized | Bacterial Biotransformation [5]: Compound NOT metabolized | Bacterial Biotransformation [6]: Compound NOT metabolized | Bacterial Biotransformation [7]: Compound NOT metabolized | Bacterial Biotransformation [8]: Compound NOT metabolized | Bacterial Biotransformation [9]: Compound NOT metabolized | Bacterial Biotransformation [12]: Compound NOT metabolized | Bacterial Biotransformation [13]: Compound NOT metabolized | Bacterial Biotransformation [14]: Compound NOT metabolized | Bacterial Biotransformation [15]: Compound NOT metabolized | Bacterial Biotransformation [16]: Compound NOT metabolized

COc1cc2nc(N3CCN(C(=O)C4CCCO4)CC3)nc(N)c2cc1OC (configuration not stated) [TERAZOSIN]
Bacterial Biotransformation [19]: Compound NOT metabolized | Bacterial Biotransformation [1]: Compound NOT metabolized | Bacterial Biotransformation [2]: Compound NOT metabolized | Bacterial Biotransformation [3]: Compound NOT metabolized | Bacterial Biotransformation [20]: Compound NOT metabolized | Bacterial Biotransformation [4]: Compound NOT metabolized | Bacterial Biotransformation [5]: Compound NOT metabolized | Bacterial Biotransformation [6]: Compound NOT metabolized | Bacterial Biotransformation [7]: Compound NOT metabolized | Bacterial Biotransformation [8]: Compound NOT metabolized | Bacterial Biotransformation [9]: Compound NOT metabolized | Bacterial Biotransformation [10]: Compound NOT metabolized | Bacterial Biotransformation [11]: Compound NOT metabolized | Bacterial Biotransformation [12]: Compound NOT metabolized | Bacterial Biotransformation [13]: Compound NOT metabolized | Bacterial Biotransformation [14]: Compound NOT metabolized | Bacterial Biotransformation [15]: Compound NOT metabolized | Bacterial Biotransformation [16]: Compound NOT metabolized | Bacterial Biotransformation [17]: Compound NOT metabolized

CCCN(CCC)CCc1cccc2c1CC(=O)N2 [ROPINIROLE]
Bacterial Biotransformation [19]: Compound NOT metabolized | Bacterial Biotransformation [1]: Compound NOT metabolized | Bacterial Biotransformation [2]: Compound NOT metabolized | Bacterial Biotransformation [3]: Compound NOT metabolized | Bacterial Biotransformation [20]: Compound NOT metabolized | Bacterial Biotransformation [4]: Compound NOT metabolized | Bacterial Biotransformation [6]: Compound NOT metabolized | Bacterial Biotransformation [7]: Compound NOT metabolized | Bacterial Biotransformation [8]: Compound NOT metabolized | Bacterial Biotransformation [10]: Compound NOT metabolized | Bacterial Biotransformation [11]: Compound NOT metabolized | Bacterial Biotransformation [12]: Compound NOT metabolized | Bacterial Biotransformation [13]: Compound NOT metabolized | Bacterial Biotransformation [14]: Compound NOT metabolized | Bacterial Biotransformation [16]: Compound NOT metabolized | Bacterial Biotransformation [17]: Compound NOT metabolized

CNNCc1ccc(C(=O)NC(C)C)cc1 [PROCARBAZINE]
Bacterial Biotransformation [19]: Compound NOT metabolized | Bacterial Biotransformation [1]: Compound NOT metabolized | Bacterial Biotransformation [2]: Compound NOT metabolized | Bacterial Biotransformation [3]: Compound NOT metabolized | Bacterial Biotransformation [20]: Compound NOT metabolized | Bacterial Biotransformation [5]: Compound NOT metabolized | Bacterial Biotransformation [6]: Compound NOT metabolized | Bacterial Biotransformation [7]: Compound NOT metabolized | Bacterial Biotransformation [8]: Compound NOT metabolized | Bacterial Biotransformation [9]: Compound NOT metabolized | Bacterial Biotransformation [10]: Compound NOT metabolized | Bacterial Biotransformation [11]: Compound NOT metabolized | Bacterial Biotransformation [12]: Compound NOT metabolized | Bacterial Biotransformation [14]: Compound NOT metabolized | Bacterial Biotransformation [15]: Compound NOT metabolized | Bacterial Biotransformation [16]: Compound NOT metabolized | Bacterial Biotransformation [17]: Compound NOT metabolized

CC(=O)OCC(=O)[C@@]1(O)[C@@H](C)C[C@H]2[C@@H]3CCC4=CC(=O)C=C[C@]4(C)[C@@]3(F)[C@@H](O)C[C@@]21C [BETAMETHASONE ACETATE]
Bacterial Biotransformation [19]: Compound metabolized | Bacterial Biotransformation [1]: Compound NOT metabolized | Bacterial Biotransformation [3]: Compound NOT metabolized | Bacterial Biotransformation [4]: Compound NOT metabolized | Bacterial Biotransformation [5]: Compound metabolized | Bacterial Biotransformation [6]: Compound NOT metabolized | Bacterial Biotransformation [7]: Compound NOT metabolized | Bacterial Biotransformation [9]: Compound NOT metabolized | Bacterial Biotransformation [11]: Compound NOT metabolized | Bacterial Biotransformation [14]: Compound metabolized | Bacterial Biotransformation [15]: Compound metabolized | Bacterial Biotransformation [16]: Compound NOT metabolized | Bacterial Biotransformation [17]: Compound NOT metabolized

CC(=O)CC(c1ccccc1)c1c(O)c2ccccc2oc1=O (configuration not stated) [WARFARIN]
Bacterial Biotransformation [19]: Compound NOT metabolized | Bacterial Biotransformation [1]: Compound NOT metabolized | Bacterial Biotransformation [2]: Compound NOT metabolized | Bacterial Biotransformation [3]: Compound NOT metabolized | Bacterial Biotransformation [20]: Compound metabolized | Bacterial Biotransformation [4]: Compound NOT metabolized | Bacterial Biotransformation [5]: Compound NOT metabolized | Bacterial Biotransformation [6]: Compound NOT metabolized | Bacterial Biotransformation [7]: Compound NOT metabolized | Bacterial Biotransformation [8]: Compound NOT metabolized | Bacterial Biotransformation [9]: Compound NOT metabolized | Bacterial Biotransformation [10]: Compound NOT metabolized | Bacterial Biotransformation [11]: Compound NOT metabolized | Bacterial Biotransformation [12]: Compound NOT metabolized | Bacterial Biotransformation [13]: Compound NOT metabolized | Bacterial Biotransformation [14]: Compound NOT metabolized | Bacterial Biotransformation [15]: Compound NOT metabolized | Bacterial Biotransformation [17]: Compound NOT metabolized

CCN(CC)CCCC(C)Nc1c2ccc(Cl)cc2nc2ccc(OC)cc12 (configuration not stated) [QUINACRINE]
Bacterial Biotransformation [19]: Compound NOT metabolized | Bacterial Biotransformation [1]: Compound NOT metabolized | Bacterial Biotransformation [2]: Compound NOT metabolized | Bacterial Biotransformation [3]: Compound NOT metabolized | Bacterial Biotransformation [20]: Compound NOT metabolized | Bacterial Biotransformation [4]: Compound NOT metabolized | Bacterial Biotransformation [5]: Compound NOT metabolized | Bacterial Biotransformation [6]: Compound NOT metabolized | Bacterial Biotransformation [7]: Compound NOT metabolized | Bacterial Biotransformation [8]: Compound NOT metabolized | Bacterial Biotransformation [10]: Compound NOT metabolized | Bacterial Biotransformation [11]: Compound NOT metabolized | Bacterial Biotransformation [12]: Compound NOT metabolized | Bacterial Biotransformation [13]: Compound NOT metabolized | Bacterial Biotransformation [14]: Compound NOT metabolized | Bacterial Biotransformation [15]: Compound NOT metabolized | Bacterial Biotransformation [16]: Compound NOT metabolized | Bacterial Biotransformation [17]: Compound NOT metabolized
